Where a SMILES comes first, the peptide text is derived from it. Where no end group is shown, it is not given here. [ ]: non-standard residue; d: D form.
B1: En-MAP1: protein of 549 amino acids from an endophyte of Empetrum nigrum, GenBank accession number KC466596 (protein, listed as Empetrum nigrum)
chain: MRLVAHPVPDAPLYALMIKACSMGIPQPNDNLWKPRNPLLAKEEKTSKRGRTAPDTERALDLFREMTLRYNIRPTAEVYTAIIAACVKRDDMYDKGFGLFKKMVELERNRMSSEGHDSTSFAPTRATYNALLRGCARNKDLLRARWILAEMLRTAQAKWQEFMEKSKKGEEGVQEWELLEVEEMRPDTNTMAFLFYTYASHTTSSKAVPETEGKKELEGKAEERASEVTSVSPVSEPPEPMDESKLVYSLPTSSQAILREVTSLLDRIKSDQGQQSNLLSSVQINSKLLNSYIAVLSAHCRSSQVVERISEVVVGTKENPKSLFEETGTSVNGYTCFTVIDACGMMEHSPDTYHLACEMWQRWLSLVENATFHRENPLKAKEIGLDSRTISDCWSAMIRLHAKYNQVDEAMKLVHEFARLYPPASLFNSLTFEPSSTSSSSLSPRKGVQEISPLFSSTSLTHSIRGRDISRIQNTMSQDPTLQFRAVQILHLRLVELETRPKDLAYLSWLLKSYEHQLQPKRPKSLQGDLFTSRQAAYNRIVQQRTSSR

What was measured:
[1] = system: MRSA strains; assay: MIC, synergistic activity with Ertapenem (4 μg/ml); format: cell-based, S. aureus; conditions: S. aureus COL with 4 μg/ml Ertapenem (synergistic activity)
Procedure: (§1) Peptides Chain 104, Chain 105, Chain 201, Chain 308, Chain 310 were tested against antibiotic-sensitive strains of S. aureus RN4220 and methicillin resistant strains of S. aureus COL (MRSA). Chain peptides comprising of either L- or D-form amino acids were tested against these bacteria, and the D-form peptides were found have better activity compared to L-form (Table 6). Synergistic activity of chain peptides along with Ertapenem (4 μg/ml) was tested to know whether it will influence the activity against MRSA strains. […] Chain 310 has the best antibacterial activity against the MRSA strains with a MIC of 0.06 & 0.03 μg/ml along with Ertapenem (4 μg/ml) for both forms of L and D-peptides (Table 6).

[2] = system: S. aureus RN4220; format: cell-based; conditions: antibiotic sensitive strain S. aureus RN4220
Procedure: Minimum inhibition concetrations (MICs) were determined against Escherichia coli (ATCC 25922), Staphylococcus aureus (ATCC 25923), Klebsiella pneumoniae (ATCC 10031) and Pseudomonas aeruginosa (ATCC 27853). Also clinical strains of E. coli, K. pneumoniae, E. cloacae, P. aeruginosa, Serratia marcescens, Proteus mirabilis, S. pneumoniae, Acinetobacter baumannii, A. johnsonii and S. aureus were used for MICs assays. Additionally, clinical strains of yeast including Candida albicans, C. glabrata, C. parapsilosis and C. quillermondiae were used. The susceptibility of these microorganisms to Chain peptides were determined using micro broth dilution assay. Colonies of the respective microorganism from Muller Hinton (MH) agar plates incubated overnight were suspended in MH broth media and final concentration of microorganism was adjusted to 5.0×10^5 cfu/ml. An aliquot of 10 μl of each Chain peptide, or gentamicin, tetracycline as reference antibiotics were added in differing concentrations along with 90 μl of bacterial suspension to 96 well polypropylene plates and incubated at 37° C. for 20 to 24 hours. Concentrations of Chain peptides and reference antibiotics ranged from 0.125 to 128 μg/ml and the MICs were recorded as the lowest concentration with no visual growth of bacteria. Similarly, antifungal MICs were tested in Potato dextrose broth.
as §1

[3] = system: human erythrocytes; format: cell-based
Procedure: In hemolysis assays, the ability of peptides at 128 μg/ml concentration to lyse human erythrocytes to release hemoglobin was measured. The peptides described here preferably have low hemolytic activity (0.2 to 3.8% hemolysis) in mammal body. […] These peptides are useful as antimicrobial drugs as they show little or no side effects at concentrations needed to kill bacteria.
Minimum inhibition concentrations (MICs) were tested by microbroth dilution method and Chain 104, 105 and 109 inhibited the growth of Escherichia coli (ATCC 25922), Staphylococcus aureus (ATCC 25923), Klebsiella pneumoniae (ATCC 10031) and Pseudomonas aeruginosa (ATCC 27853) between 1-8 μg/ml respectively (Tables 3a, 3b and 3c). The membranolytic activities of the peptides were tested by measuring the release of hemoglobin from erythrocytes of fresh blood donated by voluntiers. Hemoglobin levels were determined spectrometrically by taking OD at 540 nm by following the protocol of Schmidtchen et al., 2011.

[4] = +4, 25, 37 and 45° C., 14 days, PBS pH 7.4, activity by RDA
Procedure: FIG. 8a. […] Antibacterial activity was tested by aliquoting 20 μg of peptides incubated at different temperature and activity was measured by zone of inhibition. Peptides at −20° C. served as control.
(§2) Thermal stability was evaluated by diluting peptides to the concentration of 2 mg/ml in PBS buffer (pH 7.4) and incubating at different temperatures, such as +4° C., 25° C. (RT), 37° C. and 45° C., peptides stored at −20° C. were used as control. After each time interval, 100 μl (2 mg/ml) of peptides were taken and stored at −20° C. for radial diffusion assay to determine the antibacterial activity (FIG. 8). Peptides were also tested by diluting them at different pH values starting from pH 4 to 9. The effect of NaCl on the antimicrobial activity was tested by adding different concentrations (50, 100 and 200 mM) of NaCl to MH medium and the minimum inhibitory concentrations were tested against 4 ATCC bacterial strains.

[5] = pH 4 to 9, activity by RDA
Procedure: FIG. 9a. pH stability of chain peptides 104 and 105 was determined by radial diffusion assay (RDA). Different pH ranging from 4-9 was used to check the zone of inhibition.
as §2

[6] = system: S. aureus; assay: Antibacterial activity analysis of protein on LB plate; format: cell-based
Procedure: Both folded and unfolded proteins were tested for antibacterial activity against S. aureus by pipetting 10 μg of protein on the S. aureus culture on an LB plate. The activity was also tested in folded and unfolded protein digested with trypsin in 0.01% acetic acid at concentrations of 30 and 60 μg/ml.

Row | Molecule | Minimum inhibitory concentration (MICs), S. aureus COL + 4 μg/ml Ertapenem [1] [µg/mL] | Minimum inhibitory concentration (MICs), S. aureus RN4220 [2] [µg/mL] | side effects to humans as tested by hemolysis assay [3] | thermostability [4] | pH stability [5] | other results
1 | CC(C)C[C@@H](NC(=O)[C@H](N)CCCNC(=N)N)C(=O)N[C@H](CCCCN)C(=O)N[C@H](Cc1c[nH]c2ccccc12)C(=O)N[C@H](Cc1ccccc1)C(=O)N[C@H](CC(C)C)C(=O)N[C@H](CC(C)C)C(=O)N[C@H](Cc1ccccc1)C(=O)N[C@H](CCCNC(=N)N)C(=O)N[C@H](CCCCN)C(=O)N[C@H](CCCNC(=N)N)C(=O)O [308 D] (H-[dR][dL][dK][dW][dF][dL][dL][dF][dR][dK][dR]-OH) | 1 | 4 |  |  |  | 
2 | CC(C)C[C@@H](NC(=O)[C@@H](CCCCN)NC(=O)[C@@H](CCCCN)NC(=O)[C@@H](Cc1ccccc1)NC(=O)[C@@H](CC(C)C)NC(=O)[C@@H](Cc1c[nH]c2ccccc12)NC(=O)[C@@H](CCCNC(=N)N)NC(=O)[C@@H](Cc1c[nH]c2ccccc12)NC(=O)[C@@H](CCCCN)NC(=O)[C@@H](CCCNC(=N)N)NC(=O)[C@H](N)CCCCN)C(=O)O [310 D] (H-[dK][dR][dK][dW][dR][dW][dL][dF][dK][dK][dL]-OH) | <0.03 | >64 |  |  |  | 
3 | KRKWRWLFKKL [Chain310] |  |  | little side effects to humans |  |  | 
4 | KRKWRWLFKKL [Compound 310] | 0.06 | >64 |  |  |  | 
5 | KWIVWRWRFKR [Chain201] |  |  | little side effects to humans | not hindered by pH or temperature even upto 45 °C for over 14 days | not hindered by pH | 
6 | KWIVWRWRFKR [Compound 201] | 0.5 | 64 |  |  |  | 
7 | RKWRAMIRLHAKRLRK [Chain104] |  |  | little side effects to humans | not hindered by pH or temperature even upto 45 °C for over 14 days | not hindered by pH | 
8 | RKWRAMIRLHAKRLRK [Compound 104] | 0.25 | >64 |  |  |  | 
9 | RKWRAMIRLHAKWLRK [Chain105] |  |  | little side effects to humans | not hindered by pH or temperature even upto 45 °C for over 14 days | not hindered by pH | 
10 | RKWRAMIRLHAKWLRK [Compound 105] | 0.5 | >64 |  |  |  | 
11 | RLKRWRLFRKR [Chain306] |  |  |  | not hindered by pH or temperature even upto 45 °C for over 14 days | not hindered by pH | 
12 | RLKWFLLFRKR [Chain308] |  |  | little side effects to humans | not hindered by pH or temperature even upto 45 °C for over 14 days | not hindered by pH | 
13 | RLKWFLLFRKR [Compound 308] | 0.5 | >64 |  |  |  | 
14 | RLKWFWLFRKR [Chain307] |  |  | little side effects to humans |  |  | 
15 | RRLIWRRFKWLR [Chain204] |  |  | little side effects to humans | not hindered by pH or temperature even upto 45 °C for over 14 days | not hindered by pH | 
16 | WWRLHAKWKLW [Chain109] |  |  | little side effects to humans |  |  | 
17 | B1 |  |  |  |  |  | antibacterial activity against S. aureus ([6]; expressed, folded protein): no activity was observed; antibacterial activity against S. aureus ([6]; folded full protein digested with trypsin, data not shown): antibacterial activity was observed for up to two hours after digestion; antibacterial activity against S. aureus ([6]; trypsin digest of the unfolded protein): No activity was detected
